In patent US4939134A, “26-aminocholesterol and derivatives and analogs thereof in the regulation of cholesterol accumulation in body tissue” (New York University, priority 1988, dated 1990):
Entries after “also recorded” stand apart in the source; their conditions may differ.

Key:
HepG2 Cells = assay: Total 125I-LDL binding to HepG2 cells; type: cell-based, human; conditions: for I-LDL BINDING: HepG2, 10 ug/ml 125I-LDL, 4 h, 4° C., n = 3, untreated 36.0; for LDL-binding (in words): HepG2 / hepatic cells
From the text: HepG2 cells were obtained from Dr. Barbara Knowles of the Wistar Institute, Pennsylvania. The HepG2 stock monolayers were maintained under the same conditions as the fibroblast monolayers, in a medium comprising MEM supplemented with 10% heat-inactivated FBS, and 1% (v/v) each of penicillin-streptomycin solution, non-essential and essential amino acids, and L-glutamine.
For experiments using HepG2 cells, confluent stock monolayers were washed once with Dulbecco's PBS, dissociated with 0.05-0.02% trypsin-EDTA followed by treatment with deoxyribonuclease I (0.1%), and were seeded (3.0×10^6) under identical conditions. The experimental MEM contained 25% (v/v) D2 O, 9% (v/v) delipidated FBS, and 1% (v/v) each of heat-inactivated FBS, penicillin-streptomycin, essential and non-essential amino acids, L-glutamine and 20 mM HEPES.
(§1) The fibroblast and hepatoblastoma cells were cultured in media containing 25% D2 O and 1% FBS in order to determine de novo cholesterol synthesis under conditions that permit receptor mediated cholesterol transport, according to the method of Easterman & Javitt et al., J. Lipid Res., 26: 950-954 (1985). Dish cultures of each cell type were prepared, and 26-aminocholesterol, dissolved in N,N-dimethylformamide (DMF, 9 ul per dish, 0.3% v/v) was added to each culture. The cells were then grown to confluence (96 hours, day 5). […] Duplicate or triplicate dishes containing 9 ul of DMF, but without 26-aminocholesterol, were used as controls.
(§2) LDL (d, 1.019-1.03) was isolated by sequential preparative ultracentrifugation of normal human plasma, using solid KBr for density adjustment, according to the methods of Havel et al., J. Clin. Invest., 34: 1345-1353 (1955) and Radding & Steinberg, J Clin. Invest., 39: 1560-1569 (1960). The isolated LDL was then iodinated with ^125 INa by the monochloride procedure of McFarlane, Nature, 102: 53 (1958), as modified for lipoproteins according to Bilheimer et al., Biochim. Biophys. Acta. 260: 212-221 (1972). To remove free iodine, the LDL preparation was subjected to column chromatography on a Sephadex G-25M disposable mini-column (Pharmacia PD-10) and was dialized against 0.15 M NaCl and […] EDTA, pH 7.4. The specific activity of all LDL preparations ranged between 160-300 cpm/mg of LDL proteins. ^125 I-LDL was stored at 4° C. and was sterilized by filtration through a 0.45 um membrane just prior to incubation with the treated fibroblast and hepatoblastoma cell cultures and control cultures.
(§3) For binding studies, a fixed concentration of 10 ug/ml of ^125 I-LDL was added directly to the monolayers of the confluent culture medium (at or near the 96th hour) and incubation was continued for a further 4 hours at 37° C. for fibroblasts and 4° C. for HepG2 cells. After this incubation, the culture dishes were placed on ice, the medium was removed, and the cell monolayers were washed as described in Goldstein & Brown, J. Biol. Chem., 249: 5153-5162 (1974). The monolayers were then scraped off the dishes with a teflon policeman and were solubilized with 1 ml of 0.1 N NaOH.
Cell-associated radioactivity was measured in a Packard auto gamma scintillation spectrometer Model 5160, and cell protein was measured by the method of Lowry et al., J. Biol. Chem., 193: 265-275 (1951), using bovine serum albumin as a standard. Total ^125 I-LDL binding was expressed as the mass of ^125 I-LDL (mg) per mg of cell protein. […]

[1] = tested on: LDLR (+) Human Fibroblasts; assay: Total 125I-LDL binding to human fibroblasts; type: cell-based; conditions: for 125I-LDL BINDING: 10 ug/ml 125I-LDL, 4 h, 37° C., n = 3, untreated 49.7; for LDL-binding (in words): human fibroblasts / tissue cells
Procedure: Normal LDLR(+) human fibroblasts (GM3440) were obtained from the National Institute of General Medical Sciences Human Genetic Cell Repository. Stock fibroblast monolayers were maintained in T-75 disposable Nunc flasks, in a medium comprising 10 ml of MEM (Eagle's Minimum Essential Medium with Earl's salts, pH 7.4) supplemented with 10% (v/v) fetal bovine serum (FBS), 2% (v/v) non-essential and essential amino acids, 1% (v/v) MEM vitamins, 1% L-glutamine (292 ug/ml), 1% penicillin (100 U/ml)-streptomycin (100 ug/ml). The fibroblast stock was maintained at 37° C. in a humidified atmosphere of 5% CO2 and 95% air.
For experiments using fibroblasts, confluent stock cultures (5-18 passages) were washed once with Dulbecco's PBS (phosphate buffered saline) prior to the addition of 3 ml aliquots of experimental MEM containing 25% (v/v) D2 O, 9% (v/v) dilapidated FBS, 1% FBS (v/v), 1% MEM vitamins and L-glutamine, and 2% of essential and non-essential amino acids and 20 mM HEPES buffer.
as §1, §2, §3
Cell-associated radioactivity was measured in a Packard auto gamma scintillation spectrometer Model 5160, and cell protein was measured by the method of Lowry et al., J. Biol. Chem., 193: 265-275 (1951), using bovine serum albumin as a standard. Total ^125 I-LDL binding was expressed as the mass of ^125 I-LDL (mg) per mg of cell protein.
For purposes of comparison, ^125 I-LDL and cholesterol assays were also conducted in cultures prepared according to the above methods, but incubated with 26-hydroxycholesterol in one set of experiments and with the sterol 26-thiacholesterol in another set of experiments. These sterols were obtained according to known methods, similar to those described above for 26-aminocholesterol.

Row | Compound | I-LDL BINDING (HepG2 Cells; 0.156 uM) | I-LDL BINDING (HepG2 Cells; 0.312 uM) | I-LDL BINDING (HepG2 Cells; 0.625 uM) | LDL-binding (in words) (HepG2 Cells) | 125I-LDL BINDING ([1]; 0.156 uM, human fibroblasts) | 125I-LDL BINDING ([1]; 0.312 uM, human fibroblasts) | 125I-LDL BINDING ([1]; 0.625 uM, human fibroblasts) | LDL-binding (in words) [1] | potency in comparison (in words) ([1]; human fibroblasts, versus 26-hydroxycholesterol) | I-LDL BINDING (HepG2 Cells; 5.0 uM) | I-LDL BINDING (HepG2 Cells; 10.0 uM) | I-LDL BINDING (HepG2 Cells; 20.0 uM) | 125I-LDL BINDING ([1]; 5.0 uM, human fibroblasts) | 125I-LDL BINDING ([1]; 10.0 uM, human fibroblasts) | 125I-LDL BINDING ([1]; 20.0 uM, human fibroblasts)
1 | C[C@@H](CN)CCC[C@@H](C)[C@H]1CC[C@H]2[C@@H]3CC=C4C[C@@H](O)CC[C@]4(C)[C@H]3CC[C@]12C [26-NH2, 26-aminocholesterol] | 40.9 +/- 3.1 ug LDL protein per mg cell pro | 43.9 +/- 4.0 ug LDL protein per mg cell pro | 52.4 +/- 8.8 ug LDL protein per mg cell pro | do not provide a similar reduction; also recorded: little or no effect; also recorded: no impact | 29.6 +/- 1.1 ug LDL protein per mg cell pro | 22.6 +/- 5.4 ug LDL protein per mg cell pro | 13.3 +/- 1.6 ug LDL protein per mg cell pro | significant reductions; also recorded: downregulates LDL binding; also recorded: selectively inhibits and reduces LDL binding | significantly more potent |  |  |  |  |  | 
2 | CC(CO)CCC[C@@H](C)[C@H]1CC[C@H]2[C@@H]3CC=C4C[C@@H](O)CC[C@]4(C)[C@H]3CC[C@]12C (stereo partly drawn) [26-OH, 26-hydroxycholesterol] |  |  | 53.6 +/- 1.3 ug LDL protein per mg cell pro | do not provide a similar reduction |  |  | 22.0 +/- 2.4 ug LDL protein per mg cell pro | significant reductions |  |  |  |  |  |  | 
3 | CC(CS)CCC[C@@H](C)[C@H]1CC[C@H]2[C@@H]3CC=C4C[C@@H](O)CC[C@]4(C)[C@H]3CC[C@]12C (stereo partly drawn) [26-SH] |  |  |  | no impact |  |  |  | no impact |  | 37.8 +/- 3.4 ug LDL protein per mg cell pro | 45.8 +/- 3.9 ug LDL protein per mg cell pro | 35.7 +/- 4.8 ug LDL protein per mg cell pro | 37.9 +/- 1.8 ug LDL protein per mg cell pro | 25.7 +/- 0.7 ug LDL protein per mg cell pro | 35.7 +/- 4.8 ug LDL protein per mg cell pro
